The record followed here is patent US20230101687A1, “SYNTHETIC TISSUE BARRIERS AND USES THEREOF” (Massachusetts Institute of Technology, priority 2019, published 2023).

In experiment [1] the target is CAT (Homo sapiens, UniProt P04040). As for the experimental part:
To confirm the reliability of the porcine-based TPA-positive tissue map described above for potential human trials, fresh resected tissue specimens from humans were tested for compatibility with TPA technology. Similar to the porcine TPA-map study, human tissue specimens were incubated with the TPA solution containing M1, and subsequently CAT-accelerated chromogenic M1 assembly was characterized.

Experiment [2] addresses endogenous catalase (CAT) (Sus scrofa, UniProt O62839). To be noted: of 35 porcine tissue sites.

Each structure is given as a SMILES string.

Chain of CAT (P04040 2-527 limits assumed): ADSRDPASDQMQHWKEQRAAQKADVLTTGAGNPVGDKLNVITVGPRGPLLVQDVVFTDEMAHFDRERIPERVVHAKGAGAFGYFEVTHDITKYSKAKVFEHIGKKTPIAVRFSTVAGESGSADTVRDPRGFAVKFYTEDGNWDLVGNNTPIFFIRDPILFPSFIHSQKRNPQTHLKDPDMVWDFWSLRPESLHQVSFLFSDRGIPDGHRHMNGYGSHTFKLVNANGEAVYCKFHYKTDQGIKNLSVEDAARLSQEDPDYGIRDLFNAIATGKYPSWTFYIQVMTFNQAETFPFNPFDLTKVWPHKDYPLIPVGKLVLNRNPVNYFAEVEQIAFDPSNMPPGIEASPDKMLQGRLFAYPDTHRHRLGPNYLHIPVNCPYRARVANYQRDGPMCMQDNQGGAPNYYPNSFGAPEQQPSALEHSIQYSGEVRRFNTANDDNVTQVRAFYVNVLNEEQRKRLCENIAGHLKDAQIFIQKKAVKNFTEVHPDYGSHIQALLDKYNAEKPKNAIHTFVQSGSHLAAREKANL
Chain of endogenous catalase (CAT) (O62839 2-527 limits assumed): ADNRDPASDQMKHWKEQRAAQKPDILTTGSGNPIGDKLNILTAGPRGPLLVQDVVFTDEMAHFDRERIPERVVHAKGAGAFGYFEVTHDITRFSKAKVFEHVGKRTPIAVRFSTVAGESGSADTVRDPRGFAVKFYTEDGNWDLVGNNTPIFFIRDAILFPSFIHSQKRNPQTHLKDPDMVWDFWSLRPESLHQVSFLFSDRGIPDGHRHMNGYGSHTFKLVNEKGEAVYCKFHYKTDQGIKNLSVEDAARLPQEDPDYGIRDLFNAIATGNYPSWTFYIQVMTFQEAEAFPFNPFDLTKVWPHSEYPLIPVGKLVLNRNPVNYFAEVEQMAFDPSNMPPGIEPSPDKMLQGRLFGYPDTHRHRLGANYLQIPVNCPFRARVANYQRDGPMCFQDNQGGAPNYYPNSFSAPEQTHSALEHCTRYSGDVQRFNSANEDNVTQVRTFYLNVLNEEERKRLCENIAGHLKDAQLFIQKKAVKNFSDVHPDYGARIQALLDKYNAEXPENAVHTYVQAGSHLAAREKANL

Take `NCCc1ccc(O)c(O)c1` [Monomer M1, dopamine]: in experiment [1] (all human tissue types tested), the “time to 95% completion of M1 assembly formation” value is 4 to 23 min. The “adhesion of assemblies on human tissues” value in experiment [1] (cartilage, buccal, tongue, blood) is “stably adhered M1 assemblies were observed”. Besides, the “tissue sites with no obvious PDA signal increase” value in experiment [2] is on record as 9 tissue sites. In addition, the “tissue sites with significantly increased PDA levels (P<0.05)” value in experiment [2] (dopamine plus hydrogen peroxide) is given as 26 tissue sites.
